# In US10752635B2, “Indazole compounds and uses thereof” (Incyte Corporation, priority 2018, dated 2020):
# Target: HPK1 (Homo sapiens (Human), UniProt Q92918)
# Experiment: HPK1 Kinase Binding Assay
# Conditions: active HPK1 (SignalChem M23-11G), tracer 222, LanthaScreen Eu-Anti GST antibody, one hour at 25° C.
# Protocol: A stock solution of 1 mM test compound was prepared in DMSO. The compound plate was prepared by 3-fold and 11-point serial dilutions. 0.1 μL of the compound in DMSO was transferred from the compound plate to the white 384 well polystyrene plates. The assay buffer contained 50 mM HEPES, pH 7.5, 0.01% Tween-20, 5 mM MgCl2, 0.01% BSA, and 5 mM DTT. 5 μL of 4 nM active HPK1 (SignalChem M23-11G) prepared in the buffer was added to the plate. The enzyme concentration given was based on the given stock concentration reported by the vender. […] After one hour incubation at 25° C., the plates were read on a PHERAstar FS plate reader (BMG Labtech). Ki values were determined.
# HPK1, sequence (Q92918 1-346 limits assumed): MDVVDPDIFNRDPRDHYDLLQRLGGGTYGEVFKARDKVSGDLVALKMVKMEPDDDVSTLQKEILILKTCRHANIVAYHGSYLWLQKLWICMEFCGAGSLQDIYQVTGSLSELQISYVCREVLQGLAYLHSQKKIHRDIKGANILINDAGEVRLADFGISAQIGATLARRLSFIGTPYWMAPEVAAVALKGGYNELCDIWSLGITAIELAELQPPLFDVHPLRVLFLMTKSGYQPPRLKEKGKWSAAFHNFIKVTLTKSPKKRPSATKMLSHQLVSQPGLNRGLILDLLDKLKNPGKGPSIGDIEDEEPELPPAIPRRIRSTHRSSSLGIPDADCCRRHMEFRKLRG
row,Compound,Ki
1,"COc1cccc(F)c1-c1nccc(C(=O)Nc2cc(F)c3nn(C)cc3c2-c2ccccc2C)n1 (single isomer, unassigned; peak 1) [14, Peak 1]",< 0.1 µM
2,"CNC(=O)c1cc(NC(=O)c2ccnc(-c3c(F)cccc3OC)n2)c(N2CCC[C@@H](N)C2)c2cnn(C)c12 (single isomer, unassigned; peak 2) [16, Peak 2]",< 0.1 µM
3,"COc1cccc(F)c1-c1nccc(C(=O)Nc2cc(C)c3nn(C)cc3c2N2CCNCC2)n1 [18, Peak 1]",< 0.1 µM
4,"CNC(=O)c1cc(NC(=O)c2ccnc(-c3c(F)cccc3OC)n2)c(N2CCC[C@@H](N)C2)c2cn(C)nc12 (single isomer, unassigned; peak 1) [16, Peak 1]",0.5 to 5 µM
5,"COc1cccc(F)c1-c1nccc(C(=O)Nc2cc(C#N)c3nn(C)cc3c2N2CCC[C@@H](N)C2)n1 (single isomer, unassigned; peak 1) [15, Peak 1]",< 0.1 µM
6,"COc1cccc(F)c1-c1nccc(C(=O)Nc2cc(C#N)c3c(cnn3C)c2N2CCC[C@@H](N)C2)n1 (single isomer, unassigned; peak 2) [15, Peak 2]",< 0.1 µM
7,"COc1cccc(F)c1-c1nccc(C(=O)Nc2cc(F)c3c(cnn3C)c2N2CC(N)C2)n1 [Example 9, N-(4-(3-Aminoazetidin-1-yl)-7-fluoro-1-methyl-1H-indazol-5-yl)-2-(2-fluoro-6-methoxyphenyl)pyrimidine-4-carboxamide]",< 0.1 µM
8,"COc1cccc(F)c1-c1nccc(C(=O)Nc2cc(F)c3c(cnn3C)c2N2CCOCC2)n1 [7, Peak 2]",< 0.1 µM
9,"CCNC(=O)N1C[C@@H]2C[C@H]1CN2c1c(NC(=O)c2ccnc(-c3c(F)cccc3OC)n2)cc(F)c2c1cnn2C [Example 2, (1S,4S)—N-Ethyl-5-(7-fluoro-5-(2-(2-fluoro-6-methoxyphenyl)pyrimidine-4-carboxamido)-1-methyl-1H-indazol-4-yl)-2,5-diazabicyclo[2.2.1]heptane-2-carboxamide]",< 0.1 µM
10,"COc1cccc(F)c1-c1nccc(C(=O)Nc2cc(F)c3c(cnn3C)c2N2CCC3(CCNC3=O)C2)n1 (single isomer, unassigned; peak 2) [8, Peak 2]",< 0.1 µM
11,"COc1cccc(F)c1-c1nccc(C(=O)Nc2cc(F)c3nn(C)cc3c2N2CCOCC2)n1 [7, Peak 1]",< 0.1 µM
12,"COc1cccc(F)c1-c1nccc(C(=O)Nc2cc(C)c3c(cnn3C)c2N2CCNCC2)n1 [18, Peak 2]",< 0.1 µM
13,"COc1cccc(F)c1-c1nccc(C(=O)Nc2cc(F)c3nn(C)cc3c2N2C[C@@H](N)C[C@H]2CO)n1 (single isomer, unassigned; peak 1) [3, Peak 1]",< 0.1 µM
14,"COc1cccc(F)c1-c1nccc(C(=O)Nc2cc(F)c3c(cnn3C)c2-c2ccccc2C)n1 (single isomer, unassigned; peak 2) [14, Peak 2]",< 0.1 µM
15,"COc1cccc(F)c1-c1nccc(C(=O)Nc2cc(F)c3c(cnn3C)c2N2CCC[C@@H]2CN)n1 (single isomer, unassigned; peak 2) [10, Peak 2]",< 0.1 µM

# Continued, values first:
row,Ki,Compound
1,< 0.1 µM,"COCCn1ncc2c(N3C[C@@H](N)C[C@H]3CO)c(NC(=O)c3cccc(-c4c(F)cccc4OC)n3)cc(F)c21 [Example 42, N-(4-((2S,4S)-4-Amino-2-(hydroxymethyl)pyrrolidin-1-yl)-7-fluoro-1-(2-methoxyethyl)-1H-indazol-5-yl)-6-(2-fluoro-6-methoxyphenyl)picolinamide]"
2,< 0.1 µM,"COc1cccc(F)c1-c1nccc(C(=O)Nc2cc(F)c3c(cnn3C)c2-c2cccc(CO)c2)n1 [Example 22, N-(7-Fluoro-4-(3-(hydroxymethyl)phenyl)-1-methyl-1H-indazol-5-yl)-2-(2-fluoro-6-methoxyphenyl)pyrimidine-4-carboxamide]"
3,< 0.1 µM,"COc1cccc(F)c1-c1nccc(C(=O)Nc2ccc3c(c(I)nn3C)c2N2CCC(N(C)C)CC2)n1 [Example 27, N-(4-(4-(Dimethylamino)piperidin-1-yl)-3-iodo-1-methyl-1H-indazol-5-yl)-2-(2-fluoro-6-methoxyphenyl)pyrimidine-4-carboxamide]"
4,< 0.1 µM,"[2H]C([2H])([2H])Oc1ccc(C)c(F)c1-c1nccc(C(=O)Nc2cc(F)c3c(cnn3CCOC)c2N2C[C@@H](N)C[C@H]2CO)n1 [Example 37, N-(4-((2S,4S)-4-Amino-2-(hydroxymethyl)pyrrolidin-1-yl)-7-fluoro-1-(2-methoxyethyl)-1H-indazol-5-yl)-2-(2-fluoro-6-(methoxy-d3)-3-methylphenyl)pyrimidine-4-carboxamide]"
5,< 0.1 µM,"COc1cccc(F)c1-c1nccc(C(=O)Nc2cc(F)c3nn(C)cc3c2N2CCN[C@@H](CO)C2)n1 [Example 33, (R)—N-(7-Fluoro-4-(3-(hydroxymethyl)piperazin-1-yl)-2-methyl-2H-indazol-5-yl)-2-(2-fluoro-6-methoxyphenyl)pyrimidine-4-carboxamide]"
6,< 0.1 µM,"COc1cccc(F)c1-c1nccc(C(=O)Nc2ccc3c(c(-c4cnn(C)c4)nn3C)c2N2CCC(N(C)C)CC2)n1 [Example 30, N-(4-(4-(Dimethylamino)piperidin-1-yl)-1-methyl-3-(1-methyl-1H-pyrazol-4-yl)-1H-indazol-5-yl)-2-(2-fluoro-6-methoxyphenyl)pyrimidine-4-carboxamide]"
7,< 0.1 µM,"CNC(=O)c1ccc(OC)c(-c2nccc(C(=O)Nc3cc(F)c4c(cnn4CCOC)c3N3C[C@@H](N)C[C@H]3CO)n2)c1F [Example 39, N-(4-((2S,4S)-4-Amino-2-(hydroxymethyl)pyrrolidin-1-yl)-7-fluoro-1-(2-methoxyethyl)-1H-indazol-5-yl)-2-(2-fluoro-6-methoxy-3-(methylcarbamoyl)phenyl)pyrimidine-4-carboxamide]"
8,< 0.1 µM,"COc1cccc(F)c1-c1nccc(C(=O)Nc2cc(F)c3c(cnn3CCO)c2N2C[C@@H]3C[C@H]2CN3)n1 [Example 25, N-(4-((1S,4S)-2,5-diazabicyclo[2.2.1]heptan-2-yl)-7-fluoro-1-(2-hydroxyethyl)-1H-indazol-5-yl)-2-(2-fluoro-6-methoxyphenyl)pyrimidine-4-carboxamide]"
9,< 0.1 µM,"COc1cccc(F)c1-c1nccc(C(=O)Nc2cc(F)c3c(cnn3C)c2N(C)[C@@H]2CCCNC2)n1 [Example 41, (R)—N-(7-Fluoro-1-methyl-4-(methyl(piperidin-3-yl)amino)-1H-indazol-5-yl)-2-(2-fluoro-6-methoxyphenyl)pyrimidine-4-carboxamide]"
10,< 0.1 µM,"COc1cccc(F)c1-c1nccc(C(=O)Nc2cc(F)c3c(cnn3C)c2-c2cccc(CN(C)C)c2)n1 [Example 24, N-(4-(3-((Dimethylamino)methyl)phenyl)-7-fluoro-1-methyl-1H-indazol-5-yl)-2-(2-fluoro-6-methoxyphenyl)pyrimidine-4-carboxamide]"
11,< 0.1 µM,"COc1cccc(F)c1-c1nccc(C(=O)Nc2cc(F)c3c(cnn3[C@@H]3CCOC3)c2N2C[C@@H](N)C[C@H]2CO)n1 [Example 32, N-(4-((2S,4S)-4-Amino-2-(hydroxymethyl)pyrrolidin-1-yl)-7-fluoro-1-((R)-tetrahydrofuran-3-yl)-1H-indazol-5-yl)-2-(2-fluoro-6-methoxyphenyl)pyrimidine-4-carboxamide]"
12,< 0.1 µM,"COc1cccc(F)c1-c1nccc(C(=O)Nc2ccc3c(c(C)nn3C)c2N2CCC(N(C)C)CC2)n1 [Example 28, N-(4-(4-(Dimethylamino)piperidin-1-yl)-1,3-dimethyl-1H-indazol-5-yl)-2-(2-fluoro-6-methoxyphenyl)pyrimidine-4-carboxamide]"
13,< 0.1 µM,"COc1cccc(F)c1-c1nccc(C(=O)Nc2cc(F)c3c(cnn3CCO)c2N2CC[C@@H](N)C2)n1 [Example 17, (R)—N-(4-(3-Aminopyrrolidin-1-yl)-7-fluoro-1-(2-hydroxyethyl)-1H-indazol-5-yl)-2-(2-fluoro-6-methoxyphenyl)pyrimidine-4-carboxamide]"
14,< 0.1 µM,"COc1cccc(F)c1-c1nccc(C(=O)Nc2cc(F)c3c(cnn3C)c2N2CCCC2=O)n1 [Example 12, N-(7-Fluoro-1-methyl-4-(2-oxopyrrolidin-1-yl)-1H-indazol-5-yl)-2-(2-fluoro-6-methoxyphenyl)pyrimidine-4-carboxamide]"
15,< 0.1 µM,"COc1cccc(F)c1-c1nccc(C(=O)Nc2cc(F)c3c(cnn3C)c2-c2ccccc2CO)n1 [Example 23, N-(7-Fluoro-4-(2-(hydroxymethyl)phenyl)-1-methyl-1H-indazol-5-yl)-2-(2-fluoro-6-methoxyphenyl)pyrimidine-4-carboxamide]"
16,< 0.1 µM,"COCCn1ncc2c(N3C[C@@H](N)C[C@H]3CO)c(NC(=O)c3ccnc(-c4c(F)cc(N)cc4OC)n3)cc(F)c21 [Example 38, N-(4-((2S,4S)-4-Amino-2-(hydroxymethyl)pyrrolidin-1-yl)-7-fluoro-1-(2-methoxyethyl)-1H-indazol-5-yl)-2-(4-amino-2-fluoro-6-methoxyphenyl)pyrimidine-4-carboxamide]"
17,< 0.1 µM,"COc1cccc(F)c1-c1nccc(C(=O)Nc2cc(F)c3c(cnn3CCF)c2N2C[C@@H]3C[C@H]2CN3)n1 [Example 36, N-(4-((1S,4S)-2,5-Diazabicyclo[2.2.1]heptan-2-yl)-7-fluoro-1-(2-fluoroethyl)-1H-indazol-5-yl)-2-(2-fluoro-6-methoxyphenyl)pyrimidine-4-carboxamide]"
18,< 0.1 µM,"COCCn1ncc2c(N3C[C@@H](N)C[C@H]3CO)c(NC(=O)c3ccnc(-c4c(OC)ccc(-c5cnn(C)c5)c4F)n3)cc(F)c21 [Example 40, N-(4-((2S,4S)-4-Amino-2-(hydroxymethyl)pyrrolidin-1-yl)-7-fluoro-1-(2-methoxyethyl)-1H-indazol-5-yl)-2-(2-fluoro-6-methoxy-3-(1-methyl-1H-pyrazol-4-yl)phenyl)pyrimidine-4-carboxamide]"
